PMC8632988, “Inhibition of SYK and cSrc kinases can protect bone and cartilage in preclinical models of osteoarthritis and rheumatoid arthritis” (Scientific Reports, 2021)
Several values for one entry are separate records, joined by “and”; a condition that tells them apart may be missing. Equal entries are not always repeated.

What was measured:
Test in all cases: Kinase selectivity profile assay
Assay type in all cases: biochemical
[1] = target: T1, ARK5/NUAK1 (Homo sapiens, UniProt O60285)
T1 construct: purchased Reaction Biology Corporation (assay service)
Description: (§1) Kinase activity data was expressed as the percent remaining kinase activity in test samples compared to vehicle (dimethyl sulfoxide) reactions based on the radioactivity of reaction products (see Table S2). Experiment was replicated twice.

[2] = target: T2, Aurora A (Homo sapiens, UniProt O14965); conditions: 500 nM; relative to DMSO; read-out: Residual enzymatic activity
T2 construct: purchased Reaction Biology Corporation
Description: as §1

[3] = target: T3, BMX/ETK (Homo sapiens, UniProt P51813)
T3 construct: purchased Reaction Biology Corporation (assay service)
Description: as §1

[4] = target: T4, CAMK1d (Homo sapiens, UniProt Q8IU85); conditions: 500 nM; relative to DMSO; read-out: Residual enzymatic activity
T4 construct: purchased Reaction Biology Corporation
Description: as §1

[5] = target: T5, CAMK1g (Homo sapiens, UniProt Q96NX5); conditions: 500 nM; relative to DMSO; read-out: Residual enzymatic activity
T5 construct: purchased Reaction Biology Corporation
Description: as §1

[6] = target: T6, CDK9/cyclin K (Homo sapiens, UniProt P50750); conditions: 500 nM; relative to DMSO; read-out: Residual enzymatic activity
T6 construct: purchased Reaction Biology Corporation
Description: as §1

[7] = target: T7, EGFR (Homo sapiens, UniProt P00533); conditions: 500 nM, relative to DMSO
T7 construct: purchased Reaction Biology Corporation
Description: as §1

[8] = target: T8, EPHA2 (Homo sapiens, UniProt P29317); conditions: 500 nM, relative to DMSO
T8 construct: purchased Reaction Biology Corporation
Description: as §1

[9] = target: T9, FES/FPS (Homo sapiens, UniProt P07332); conditions: 500 nM; relative to DMSO; read-out: Residual enzymatic activity
T9 construct: purchased Reaction Biology Corporation
Description: as §1

[10] = target: T10, FGFR2 (Homo sapiens, UniProt P21802); conditions: 500 nM, relative to DMSO
T10 construct: purchased Reaction Biology Corporation
Description: as §1

[11] = target: T11, FYN (Homo sapiens, UniProt P06241)
T11 construct: purchased Reaction Biology Corporation (assay service)
Description: as §1

[12] = target: T12, IKKa/CHUK (Homo sapiens, UniProt O15111); conditions: 500 nM; relative to DMSO; read-out: Residual enzymatic activity
T12 construct: purchased Reaction Biology Corporation
Description: as §1

[13] = target: T13, ITK (Homo sapiens, UniProt Q08881); conditions: 500 nM; relative to DMSO; read-out: Residual enzymatic activity
T13 construct: purchased Reaction Biology Corporation
Description: as §1

[14] = target: T14, JAK2 (Homo sapiens, UniProt O60674)
T14 construct: purchased Reaction Biology Corporation (assay service)
Description: as §1

[15] = target: T15, JNK1 (Homo sapiens, UniProt P45983); conditions: 500 nM; relative to DMSO; read-out: Residual enzymatic activity
T15 construct: purchased Reaction Biology Corporation
Description: as §1

[16] = target: T16, JNK2 (Homo sapiens, UniProt P45984); conditions: 500 nM; relative to DMSO; read-out: Residual enzymatic activity
T16 construct: purchased Reaction Biology Corporation
Description: as §1

[17] = target: T17, KDR/VEGFR2 (Homo sapiens, UniProt P35968); conditions: 500 nM, relative to DMSO
T17 construct: purchased Reaction Biology Corporation
Description: as §1

[18] = target: T18, LCK (Homo sapiens, UniProt P06239)
T18 construct: purchased Reaction Biology Corporation (assay service)
Description: as §1

[19] = target: T19, MARK1 (Homo sapiens, UniProt Q9P0L2); conditions: 500 nM; relative to DMSO; read-out: Residual enzymatic activity
T19 construct: purchased Reaction Biology Corporation
Description: as §1

[20] = target: T20, MARK2/PAR-1Ba (Homo sapiens, UniProt Q7KZI7); conditions: 500 nM; relative to DMSO; read-out: Residual enzymatic activity
T20 construct: purchased Reaction Biology Corporation
Description: as §1

[21] = target: T21, MARK3 (Homo sapiens, UniProt P27448); conditions: 500 nM; relative to DMSO; read-out: Residual enzymatic activity
T21 construct: purchased Reaction Biology Corporation
Description: as §1

[22] = target: T22, MLK3/MAP3K11 (Homo sapiens, UniProt Q16584)
T22 construct: purchased Reaction Biology Corporation (Malvern, PA, USA)
Description: as §1

[23] = target: T23, NEK11 (Homo sapiens, UniProt Q8NG66)
T23 construct: purchased Reaction Biology Corporation (Malvern, PA, USA)
Description: as §1

[24] = target: T24, NEK2 (Homo sapiens, UniProt P51955); conditions: 500 nM; relative to DMSO; read-out: Residual enzymatic activity
T24 construct: purchased Reaction Biology Corporation
Description: as §1

[25] = target: T25, PAK1 (Homo sapiens, UniProt Q13153); conditions: 500 nM; relative to DMSO; read-out: Residual enzymatic activity
T25 construct: purchased Reaction Biology Corporation
Description: as §1

[26] = target: T26, PAK3 (Homo sapiens, UniProt O75914); conditions: 500 nM; relative to DMSO; read-out: Residual enzymatic activity
T26 construct: purchased Reaction Biology Corporation
Description: as §1

[27] = target: T27, PKG2/PRKG2 (Homo sapiens, UniProt Q13237); conditions: 500 nM; relative to DMSO; read-out: Residual enzymatic activity
T27 construct: purchased Reaction Biology Corporation
Description: as §1

[28] = target: T28, PYK2 (Homo sapiens, UniProt Q14289); conditions: 500 nM; relative to DMSO; read-out: Residual enzymatic activity
T28 construct: purchased Reaction Biology Corporation
Description: as §1

[29] = target: T29, RET (Homo sapiens, UniProt P07949)
T29 construct: purchased Reaction Biology Corporation (Malvern, PA, USA)
Description: as §1

[30] = target: T30, ROS/ROS1 (Homo sapiens, UniProt P08922)
T30 construct: purchased Reaction Biology Corporation (Malvern, PA, USA)
Description: as §1

[31] = target: T31, SIK2 (Homo sapiens, UniProt Q9H0K1)
T31 construct: purchased Reaction Biology Corporation (Malvern, PA, USA)
Description: as §1

[32] = target: T32, TLK2 (Homo sapiens, UniProt Q86UE8); conditions: 500 nM; relative to DMSO; read-out: Residual enzymatic activity
T32 construct: purchased Reaction Biology Corporation
Description: as §1

[33] = target: T33, TRKC (Homo sapiens, UniProt Q16288); conditions: 500 nM; relative to DMSO; read-out: Residual enzymatic activity
T33 construct: purchased Reaction Biology Corporation
Description: as §1

[34] = target: T34, TSSK3/STK22C (Homo sapiens, UniProt Q96PN8); conditions: 500 nM; relative to DMSO; read-out: Residual enzymatic activity
T34 construct: purchased Reaction Biology Corporation
Description: as §1

[35] = target: T35, ZIPK/DAPK3 (Homo sapiens, UniProt O43293); conditions: 500 nM; relative to DMSO; read-out: Residual enzymatic activity
T35 construct: purchased Reaction Biology Corporation
Description: as §1

[36] = 500 nM, relative to DMSO, read-out: Residual enzymatic activity
[37] = 10-dose mode, threefold serial dilution from 10 μM
[38] = read-out: Residual enzymatic activity

T31 sequence (Q9H0K1 whole entry): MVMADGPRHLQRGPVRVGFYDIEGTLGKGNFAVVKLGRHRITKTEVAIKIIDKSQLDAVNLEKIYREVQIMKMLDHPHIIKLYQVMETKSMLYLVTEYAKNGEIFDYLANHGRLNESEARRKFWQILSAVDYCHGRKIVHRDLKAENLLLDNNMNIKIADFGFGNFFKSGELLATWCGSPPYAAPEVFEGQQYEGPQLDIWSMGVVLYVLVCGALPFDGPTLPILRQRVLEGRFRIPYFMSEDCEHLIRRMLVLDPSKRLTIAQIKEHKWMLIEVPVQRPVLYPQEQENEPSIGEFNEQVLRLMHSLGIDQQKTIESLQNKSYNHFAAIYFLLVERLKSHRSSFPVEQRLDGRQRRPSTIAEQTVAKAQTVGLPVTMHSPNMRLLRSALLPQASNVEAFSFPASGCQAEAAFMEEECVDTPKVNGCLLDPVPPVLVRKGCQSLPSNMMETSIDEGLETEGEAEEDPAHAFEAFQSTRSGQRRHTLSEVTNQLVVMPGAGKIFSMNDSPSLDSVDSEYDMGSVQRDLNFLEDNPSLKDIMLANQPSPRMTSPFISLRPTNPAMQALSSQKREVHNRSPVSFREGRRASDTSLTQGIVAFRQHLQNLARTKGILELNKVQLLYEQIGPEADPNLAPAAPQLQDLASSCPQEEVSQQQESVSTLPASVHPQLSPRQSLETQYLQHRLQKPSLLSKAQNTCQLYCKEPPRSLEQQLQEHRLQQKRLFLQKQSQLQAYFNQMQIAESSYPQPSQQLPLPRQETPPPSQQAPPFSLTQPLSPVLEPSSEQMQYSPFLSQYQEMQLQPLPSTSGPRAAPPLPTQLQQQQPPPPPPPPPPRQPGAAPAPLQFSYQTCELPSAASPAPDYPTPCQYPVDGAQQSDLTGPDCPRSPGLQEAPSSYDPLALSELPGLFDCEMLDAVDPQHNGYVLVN
T3 sequence (P51813 whole entry): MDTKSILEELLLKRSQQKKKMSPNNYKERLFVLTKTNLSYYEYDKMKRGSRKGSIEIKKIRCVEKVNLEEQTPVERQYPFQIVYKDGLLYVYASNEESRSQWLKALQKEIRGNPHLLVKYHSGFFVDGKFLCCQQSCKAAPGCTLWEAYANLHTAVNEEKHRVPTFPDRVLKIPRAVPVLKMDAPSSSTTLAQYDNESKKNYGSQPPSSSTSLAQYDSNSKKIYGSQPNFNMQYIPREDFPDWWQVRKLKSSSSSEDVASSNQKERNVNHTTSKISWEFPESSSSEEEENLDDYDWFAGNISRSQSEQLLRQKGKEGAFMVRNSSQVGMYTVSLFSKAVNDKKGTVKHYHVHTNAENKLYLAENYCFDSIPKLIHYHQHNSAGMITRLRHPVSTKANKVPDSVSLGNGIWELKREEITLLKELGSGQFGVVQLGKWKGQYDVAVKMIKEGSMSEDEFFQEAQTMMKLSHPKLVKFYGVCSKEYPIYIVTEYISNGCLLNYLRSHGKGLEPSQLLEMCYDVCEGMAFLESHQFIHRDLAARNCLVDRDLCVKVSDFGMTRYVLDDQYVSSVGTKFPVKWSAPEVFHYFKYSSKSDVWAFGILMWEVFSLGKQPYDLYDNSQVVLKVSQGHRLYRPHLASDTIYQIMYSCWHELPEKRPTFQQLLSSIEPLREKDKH
T18 sequence (P06239 whole entry): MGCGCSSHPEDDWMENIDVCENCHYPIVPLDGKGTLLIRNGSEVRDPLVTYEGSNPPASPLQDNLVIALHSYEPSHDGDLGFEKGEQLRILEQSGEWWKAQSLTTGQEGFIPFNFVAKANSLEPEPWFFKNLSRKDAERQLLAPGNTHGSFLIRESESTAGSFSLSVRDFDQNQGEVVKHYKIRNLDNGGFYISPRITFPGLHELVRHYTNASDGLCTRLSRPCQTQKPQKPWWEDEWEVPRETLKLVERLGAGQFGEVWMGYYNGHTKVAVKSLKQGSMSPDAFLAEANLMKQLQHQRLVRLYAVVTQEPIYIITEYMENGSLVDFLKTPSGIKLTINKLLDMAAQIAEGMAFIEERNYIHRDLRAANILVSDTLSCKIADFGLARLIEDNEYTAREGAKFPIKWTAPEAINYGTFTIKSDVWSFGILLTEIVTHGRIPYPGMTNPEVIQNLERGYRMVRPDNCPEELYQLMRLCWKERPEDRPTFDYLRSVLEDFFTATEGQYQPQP
T29 sequence (P07949 29-1114): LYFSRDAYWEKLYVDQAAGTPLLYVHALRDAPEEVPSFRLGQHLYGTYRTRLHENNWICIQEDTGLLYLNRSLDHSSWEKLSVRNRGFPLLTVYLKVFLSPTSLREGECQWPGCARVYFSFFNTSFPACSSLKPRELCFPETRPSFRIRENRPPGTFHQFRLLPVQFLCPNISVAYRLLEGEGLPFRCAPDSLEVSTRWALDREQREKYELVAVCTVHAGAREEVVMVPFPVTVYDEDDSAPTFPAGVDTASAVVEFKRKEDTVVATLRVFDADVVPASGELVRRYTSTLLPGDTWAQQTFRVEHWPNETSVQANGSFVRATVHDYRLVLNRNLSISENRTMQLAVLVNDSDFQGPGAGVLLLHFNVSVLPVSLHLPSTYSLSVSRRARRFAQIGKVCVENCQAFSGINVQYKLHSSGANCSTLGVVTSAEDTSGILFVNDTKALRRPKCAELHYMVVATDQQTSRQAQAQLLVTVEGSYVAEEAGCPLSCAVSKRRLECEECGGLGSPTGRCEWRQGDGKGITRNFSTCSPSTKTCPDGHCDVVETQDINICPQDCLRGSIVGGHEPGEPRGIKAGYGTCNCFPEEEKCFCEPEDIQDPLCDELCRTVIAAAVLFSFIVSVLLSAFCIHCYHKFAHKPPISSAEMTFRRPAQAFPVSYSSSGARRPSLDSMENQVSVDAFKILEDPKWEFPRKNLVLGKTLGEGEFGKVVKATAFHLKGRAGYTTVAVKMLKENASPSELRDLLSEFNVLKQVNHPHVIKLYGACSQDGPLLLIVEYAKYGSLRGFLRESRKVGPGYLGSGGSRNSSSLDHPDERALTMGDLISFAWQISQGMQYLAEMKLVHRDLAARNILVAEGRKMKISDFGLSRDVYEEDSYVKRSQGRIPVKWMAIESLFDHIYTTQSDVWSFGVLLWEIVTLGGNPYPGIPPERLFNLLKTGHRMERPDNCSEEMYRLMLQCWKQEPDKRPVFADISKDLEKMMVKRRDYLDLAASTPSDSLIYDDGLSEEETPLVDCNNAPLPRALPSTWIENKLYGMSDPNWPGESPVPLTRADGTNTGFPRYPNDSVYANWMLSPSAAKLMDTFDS
T22 sequence (Q16584 whole entry): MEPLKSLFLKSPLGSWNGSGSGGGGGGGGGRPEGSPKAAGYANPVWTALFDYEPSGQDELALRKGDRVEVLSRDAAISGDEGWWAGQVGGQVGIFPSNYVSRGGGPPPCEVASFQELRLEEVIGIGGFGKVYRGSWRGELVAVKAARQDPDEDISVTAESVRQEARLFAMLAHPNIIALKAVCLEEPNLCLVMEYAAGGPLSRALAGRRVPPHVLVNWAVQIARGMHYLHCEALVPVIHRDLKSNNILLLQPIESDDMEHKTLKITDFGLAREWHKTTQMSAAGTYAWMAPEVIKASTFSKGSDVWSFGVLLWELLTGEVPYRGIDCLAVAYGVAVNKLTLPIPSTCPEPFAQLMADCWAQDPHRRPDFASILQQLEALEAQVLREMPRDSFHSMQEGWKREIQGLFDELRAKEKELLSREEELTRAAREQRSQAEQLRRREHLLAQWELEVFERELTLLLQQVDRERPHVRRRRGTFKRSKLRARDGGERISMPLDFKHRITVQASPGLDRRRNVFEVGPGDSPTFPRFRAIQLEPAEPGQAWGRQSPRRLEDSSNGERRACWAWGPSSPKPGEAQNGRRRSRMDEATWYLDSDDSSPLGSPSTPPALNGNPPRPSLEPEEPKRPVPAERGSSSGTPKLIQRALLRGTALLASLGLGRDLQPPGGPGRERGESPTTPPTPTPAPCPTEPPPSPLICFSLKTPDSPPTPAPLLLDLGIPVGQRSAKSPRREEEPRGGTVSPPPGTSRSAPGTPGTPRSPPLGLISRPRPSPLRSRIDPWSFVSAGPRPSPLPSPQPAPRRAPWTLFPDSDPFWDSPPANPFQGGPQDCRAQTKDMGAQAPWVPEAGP
T8 sequence (P29317 24-976): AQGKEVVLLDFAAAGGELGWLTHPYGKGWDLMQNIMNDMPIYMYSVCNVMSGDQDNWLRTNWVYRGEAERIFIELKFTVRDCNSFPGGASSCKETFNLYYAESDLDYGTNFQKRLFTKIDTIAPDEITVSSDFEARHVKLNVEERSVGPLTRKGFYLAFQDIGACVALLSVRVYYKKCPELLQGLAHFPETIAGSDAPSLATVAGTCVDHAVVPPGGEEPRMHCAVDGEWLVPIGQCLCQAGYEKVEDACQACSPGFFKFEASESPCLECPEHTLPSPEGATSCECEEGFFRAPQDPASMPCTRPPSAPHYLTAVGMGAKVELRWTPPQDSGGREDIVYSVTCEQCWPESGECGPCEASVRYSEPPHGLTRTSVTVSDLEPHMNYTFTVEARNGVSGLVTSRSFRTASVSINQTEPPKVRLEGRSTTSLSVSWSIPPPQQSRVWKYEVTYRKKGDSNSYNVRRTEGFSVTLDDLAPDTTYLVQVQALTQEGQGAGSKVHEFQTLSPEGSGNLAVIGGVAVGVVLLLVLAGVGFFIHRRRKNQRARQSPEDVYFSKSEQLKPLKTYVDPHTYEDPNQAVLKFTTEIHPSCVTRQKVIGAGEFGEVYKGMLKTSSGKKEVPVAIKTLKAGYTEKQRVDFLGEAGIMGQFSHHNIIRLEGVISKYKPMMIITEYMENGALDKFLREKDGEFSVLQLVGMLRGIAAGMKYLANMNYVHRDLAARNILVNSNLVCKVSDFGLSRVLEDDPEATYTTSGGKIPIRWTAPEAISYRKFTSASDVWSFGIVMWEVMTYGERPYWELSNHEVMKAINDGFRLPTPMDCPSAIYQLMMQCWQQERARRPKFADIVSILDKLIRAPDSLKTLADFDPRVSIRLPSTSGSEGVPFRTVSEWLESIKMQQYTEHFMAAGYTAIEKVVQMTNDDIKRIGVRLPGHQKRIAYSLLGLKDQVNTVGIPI

COc1cc(Nc2ncnc(Nc3cc4c(cn3)NC(=O)C(C)(C)O4)n2)cc(OC)c1OC [MT-SYK-03]
remaining activity at 0.5 µM [1, 36]: 49.7% | IC50 [1, 37]: 376 nM | remaining activity at 0.5 µM [2]: 74.4% | remaining activity at 0.5 µM [3, 36]: 18% | IC50 [3, 37]: 199 nM | remaining activity at 0.5 µM [4]: 108% | remaining activity at 0.5 µM [5]: 99.2% | remaining activity at 0.5 µM [6]: 95.7% | Residual enzymatic activity [7]: 59.6% | remaining activity at 0.5 µM [7, 38]: > 54% | Residual enzymatic activity [8]: 56.3% | remaining activity at 0.5 µM [8, 38]: > 54% | remaining activity at 0.5 µM [9]: 92.2% | Residual enzymatic activity [10]: 65.1% | remaining activity at 0.5 µM [10, 38]: > 54% | remaining activity at 0.5 µM [11, 36]: 25.2% | IC50 [11, 37]: 20 nM | remaining activity at 0.5 µM [12]: 100% | remaining activity at 0.5 µM [13]: 102% | remaining activity at 0.5 µM [14, 36]: 27% | IC50 [14, 37]: 67.2 nM | remaining activity at 0.5 µM [15]: 94.3% | remaining activity at 0.5 µM [16]: 92.6% | Residual enzymatic activity [17]: did not inhibit | remaining activity at 0.5 µM [17, 38]: 88.6% | remaining activity at 0.5 µM [18, 36]: 12% | IC50 [18, 37]: 20 nM and 20.1 nM | remaining activity at 0.5 µM [19]: 95.7% | remaining activity at 0.5 µM [20]: 97.9% | remaining activity at 0.5 µM [21]: 97.1% | remaining activity at 0.5 µM [22, 36]: 31.4% | IC50 [22, 37]: 25.6 nM | remaining activity at 0.5 µM [23, 36]: 35.9% | IC50 [23, 37]: 26.1 nM | remaining activity at 0.5 µM [24]: 86% | remaining activity at 0.5 µM [25]: 100% | remaining activity at 0.5 µM [26]: 87% | remaining activity at 0.5 µM [27]: 94.2% | remaining activity at 0.5 µM [28]: 63.4% | remaining activity at 0.5 µM [29, 36]: 23% | IC50 [29, 37]: 13.5 nM | remaining activity at 0.5 µM [30, 36]: 25.9% | IC50 [30, 37]: 34.7 nM | remaining activity at 0.5 µM [31, 36]: 16.2% | IC50 [31, 37]: 23 nM and 23.4 nM | remaining activity at 0.5 µM [32]: 95.6% | remaining activity at 0.5 µM [33]: 84.5% | remaining activity at 0.5 µM [34]: 99.9% | remaining activity at 0.5 µM [35]: 98.4%
